Measured values as given in patent publication US10781229B2, “Tris- or neopentyl glycol-based amphiphiles and uses thereof” (Industry-University Cooperation Foundation Hanyang …, priority 2015, dated 2020).

Assays:
[1] = Hydrodynamic radius and size distribution of micelles by dynamic light scattering (DLS); format: physicochemical
Method: A method of measuring the radius of a micelle is not specifically limited and may be any method generally known in the art. For example, the radius may be measured by a dynamic light scattering (DLS) experiment.
In particular, critical micellar concentrations (CMCs) were measured using hydrophobic fluorescence staining and diphenylhexatriene (DPH), and hydrodynamic radii (Rh) of micelles formed of each material were measured by a dynamic light scattering (DLS) experiment. Measured results are compared to values of DDM as an existing amphipathic molecule (detergent).
Meanwhile, size distributions of the micelles formed of TDTs and NDTs were measured using DLS. Results are illustrated in FIG. 5. TDTs or NDTs were respectively used in an amount of 0.5% by weight. As a result, micelles of TDTs or NDTs were measured as forming a single community.

LeuT E192C^TMR = LeuT E192C^TMR (Aquifex aeolicus, UniProt O67854, E192C); test: Site-directed fluorescence (iodide) quenching of LeuT E192C-TMR, Stern-Volmer analysis; format: biochemical; conditions: for Δ KSV: leucine-induced change of iodide accessibility of TMR, CMC+0.04% by weight detergent, means [s.e.m. interval]; for Ksv when leucine is absent: no leucine, LeuT E192C-TMR in CMC+0.04% by weight detergent
Source text: A principle of this experiment is as follows: A cysteine residue was inserted into a 192th LeuT site (E192C), followed by coupling with a thiol-reactive fluorophore (tetramethylrhodamine-5-maleimide, TMR). The prepared LeuT E192C^TMR, as TMR-coupled LeuT, is an excellent system to sensitively monitor protein structure change in response to ligand coupling. […] Due to such change, TMR fluorescence molecules exposed to an aqueous solution become closer to iodide (I^−), as a quencher dissolved in water, whereby strong fluorescence quenching is caused. TMR quenching intensity by leucine coupling may be represented by Stern-Volmer plotting and thus structural flexibility of a protein may be directly measured. Ligand bindability of the TMR-labeled transporter was measured using SPA while increasing the amount of [^3H]leucine.
In particular, structure, expression, purification, and fluorescence labeling were performed according to the following methods. In accordance with a method disclosed in a paper published by C. B. Billesbolle, et al. (J. Biol. Chem. 2015, 290, 26725-26738), a leucine transporter mutant (LeuT E192C^TMR) was produced and purification and labeling were carried out. In summary, a residue of the E192 was mutated with cysteine using QuikChange (Agilent Technologies) such that fluorescence coupling was accomplished by maleimide labeling. The LeuT mutant was expressed in E. coli C41 (DE3). A membrane of DE3 was disrupted and LeuT was solubilized with 1% (w/v) DDM. Subsequently, LeuT solubilized with the amphipathic molecule was fixed to a Chelating Sepharose Fast Flow resin (GE Healthcare, Little Chalfont, UK), followed by washing with tetramethylrhodamine-5-maleimide (TMR, Life Technologies, Carlsbad, Calif., USA) at 4° C. for 16 hours. Subsequently, LeuT was eluted with a buffer containing 300 mM imidazole, 20 mM Tris-HCl (pH 8.0), 1 mM NaCl, 199 mM KCl, and 0.05% DDM.
Fluorescence spectroscopy was carried out according to the following method. A fluorescence-based experiment was carried out by diluting 0.5 μg ml^−1 of fluorescence-labeled LeuT with buffer A supplemented with CMC+0.04% by weight of DDM, MNG-3 or NDT-C11. Leucine was separately added to specimen aliquots of LeuT for each concentration and incubated for one hour in a room temperature shaker. Steady-state fluorescence intensities were recorded with a FluoroMax4 (Horiba Scientific, Edison, N.J., USA) at λem=572 nm and excitation source at λex=552 nm at 25° C. Quencher-titration was carried out by successive additions of small specimen aliquots containing 1 M KI into buffer A supplemented with 10 mM Na2S2O3. Fluorescence intensities (F) were corrected for sample dilution and normalized to the initial intensity (F0) of a sample. All data was analyzed by linear-(Stern-Volmer plot) or nonlinear regression in GraphPad Prism 6.0 (GraphPad Software). The degree of iodide (I^−) accessibility was obtained from the following Stern-Volmer equation: F0/F=1+Ksv×[Q], where F0/F is normalized fluorescence quenching, Ksv is a Stern-Volmer constant, and [Q] is quencher concentration. When means are calculated as a log, the means are shown as pIC50 and the [s.e.m. interval] from pIC50±s.e.m.
Values of radioligand binding constants were calculated through SPA saturation binding experiments. Values of iodide quenching-response constants and ΔKSV were calculated from a site-directed fluorescence quenching spectroscopy. The affinity (Kd) is shown as means±s.e.m and ΔKSV is shown as means [s.e.m. interval]. All data is shown as means of three to four independent experiments.

[2] = tested on: leucine transporter (LeuT); test: LeuT stability by [3H]-Leu scintillation proximity assay (SPA); format: biochemical, Aquifex aeolicus
Method: Experiments to measure the structural stability of a leucine transporter (LeuT) protein by TDTs or NDTs were conducted. LeuT protein activity was measured by scintillation proximity assay (SPA) utilizing [^3H]-Leu as a ligand. The concentration of TDTs, NDTs, or DDM was (a) CMC+0.04% by weight, or (b) CMC+[…].
In particular, the LeuT stability measurement experiments were conducted according to the following methods. Depending upon the results of UapA and MelB, only TDT-C11, TDT-C12, NDT-C10, NDT-C11 and NDT-C12 among the amphipathic molecules according to the present invention were selectively used. In accordance with a method disclosed in a paper published by G. Deckert, et al. (Nature 1998, 392, 353-358), a wild-type leucine transporter (LeuT) was purified from Aquifex aeolicus. LeuT is expressed in E. coli C41 (DE3) transformed with pET16b encoding a C-terminal 8×His-tagged transporter (the expression plasmid was provided by Dr E. Gouaux, Vollum Institute, Portland, Oreg., USA). In summary, the […] protein was isolated and solubilized with 1.0% by weight of DDM, followed by binding the protein to a Ni^2+-NTA resin (Life Technologies, Denmark) and eluting the same with 20 mM Tris-HCl (pH 8.0), 1 mM NaCl, 199 mM KCl, 0.05% DDM, and 300 mM imidazole. Next, about 1.5 mg/ml of a protein stock was 10-fold diluted with a buffer in which DDM and imidazole are absent, but TDTs, NDTs, or DDM (control) is supplemented such that a final concentration becomes CMC+0.04% by weight or CMC+0.2% by weight. Protein samples were stored at room temperature and centrifuged at a predetermined time. To evaluate protein activity, [^3H]-Leu coupling was measured using scintillation proximity assay (SPA) (M. Quick et al., Proc. Natl, Acad. Sci. U.S.A. 2007, 104, 3603-3608). 5 μL of each protein sample dissolved in a buffer that contained 200 mM NaCl and each test compound was analyzed. SPA reaction was carried out in the presence of 20 nM [^3H]-Leu and copper chelate (His-Tag) YSi beads (both purchased from PerkinElmer, Denmark). [^3H]-Leu coupling was measured by means of a MicroBeta liquid scintillation counter (PerkinElmer).

Row | SMILES | Rh (hydrodynamic radius of micelles) [1] | Δ KSV (LeuT E192C^TMR) | Ksv when leucine is absent (LeuT E192C^TMR) | LeuT protein stabilization ability ([3H]-Leu binding) ([2]; CMC+0.04% by weight, room temperature) | LeuT protein stabilization, overall comparison ([2]; conclusion) | Structural fluidity of the LeuT protein (LeuT E192C^TMR; conclusion from ΔKsv)
1 | CCCCCCCCCCCCOC1OC(CO)C(OC2OC(CO)C(O)C(O)C2O)C(O)C1O [DDM, n-dodecyl-β-D-maltopyranoside, reference compound] | 3.4 ± 0.0 nm | 1.1 M⁻¹ | up to 1.6 | – | – | –
2 | CCCCCCCCCCCC(CCCCCCCCCCC)COCC(CO[C@@H]1OC(CO)[C@@H](O)C(O)C1O)(CO[C@@H]1OC(CO)[C@@H](O)C(O)C1O)CO[C@@H]1OC(CO)[C@@H](O)C(O)C1O (stereo partly drawn) [NDT-C11] | 3.5 ± 0.0 nm | 0.9 M⁻¹ | up to 2.5 | most excellent | superior to DDM and similar to MNG-3 | satisfactorily maintains the structural fluidity
